Data published in US12427134B2, “Methods of reducing the risk of cardiovascular events in a subject with atrial fibrillation and/or atrial flutter” (priority 2019, dated 2025).

Test system: hypertriglyceridemic patients with cardiovascular disease or at high risk for cardiovascular disease
Test: REDUCE-IT: total (first and subsequent/recurrent) ischemic events analyses (negative binomial, Andersen-Gill, Wei-Lin-Weissfeld, joint frailty)
Assay type: in vivo, human
Conditions: for Cardiovascular Death, HR (95% CI) / Non-fatal Cardiovascular Event, HR (95% CI): joint frailty model; for Key secondary composite endpoint, HR (95% CI) / Primary composite endpoint, HR (95% CI): modified WLW
Procedure: The primary outcome for the study was total recurrent events consisting of the composite of cardiovascular death, nonfatal myocardial infarction, nonfatal stroke, coronary revascularization, or hospitalization for unstable angina. Recurrent event analyses were also performed for the key secondary endpoint, a composite of cardiovascular death, non fatal myocardial infarction, or non-fatal stroke. For each of these composite endpoints, the effects of icosapent ethyl in the secondary and primary prevention strata were examined separately.
Demographic and baseline disease characteristics are presented using frequencies and percentages for categorical variables and medians with interquartile ranges for continuous variables. Between treatment group comparisons were derived using the chi-square test for categorical variables and Wilcoxon rank test for continuous variables. All clinical endpoint events used in the efficacy analyses were adjudicated by an independent Clinical Endpoint Committee (CEC) who were blinded to the treatment assignment. Since the primary efficacy endpoint was the time from randomization to the first occurrence of any component of the composite endpoint, and recurrence of such events within each patient is possible, a pre-specified analysis using a Cox proportional-hazard with the counting-process formulation of Andersen and Gill was performed to model the first and all recurrent cardiovascular events. Hazard ratios (HR) and corresponding 95% confidence intervals (CI) are reported from this model. In addition, as a marginal model and an extension of survival models based on the Cox proportional hazard model, the modified Wei-Lin-Weissfeld (WLW) method for analysis of recurrent events in the presence of deaths was carried out as a supportive analysis. In addition, as pre-specified, a recurrent event analysis using the Andersen-Gill and Wei-Lin-Weissfeld methods were carried out for the individual primary event components other than CV death. Though not pre-specified, additional recurrent event analyses were performed for the key secondary endpoint, which is a composite of CV death, non-fatal MI, or non-fatal stroke, and for the primary endpoint and the key secondary endpoint in the primary and secondary prevention strata to explore further the consistency of clinical benefit of icosapent ethyl. In subgroup analyses of the two cardiovascular risk strata (i.e., primary and secondary prevention), site-level discrepancies in cardiovascular risk group assignment occurring at entry and detected during the study (1.8%) were adjusted to conform with documented medical history data prior to randomization. All efficacy analyses were performed according to the intention-to-treat principle. All tests were based on a 2-sided nominal significance level of 5% with no adjustments for multiple comparisons.
The following study was a multi-center, placebo-controlled clinical trial the details of which are described above in Example 1, the REDUCE-IT design. […] The main outcomes were total primary composite endpoint events defined as cardiovascular death, nonfatal myocardial infarction, nonfatal stroke, coronary revascularization, or hospitalization for unstable angina and total key secondary composite endpoint events defined as cardiovascular death, nonfatal myocardial infarction, or nonfatal stroke. In the context of this study, total events refer to any first event as well as any subsequent event. Differences in total events were determined using other statistical models, including Andersen-Gill, Wei-Lin-Weisfeld (Li and Lagakos), both pre-specified, and a post hoc and joint-frailty analysis.
For the present prespecified analysis, the primary outcome was the total of first plus subsequent ischemic events consisting of the composite of cardiovascular death, nonfatal myocardial infarction, nonfatal stroke, coronary revascularization, or hospitalization for unstable angina. […]

[1] = Andersen-Gill (I), adjusted, full dataset
[2] = Andersen-Gill (I), adjusted, reduced dataset
[3] = Andersen-Gill (I), unadjusted, full dataset
[4] = Andersen-Gill (I), unadjusted, reduced dataset
[5] = Andersen-Gill (II), adjusted, full dataset
[6] = Andersen-Gill (II), adjusted, reduced dataset
[7] = Andersen-Gill (II), unadjusted, full dataset
[8] = Andersen-Gill (II), unadjusted, reduced dataset
[9] = as summarised in the Example 6 conclusion
[10] = including same-day recurrent events, ITT, denominator total number of events in category
[11] = key secondary endpoint, adjusted, reduced dataset
[12] = key secondary endpoint, unadjusted, reduced dataset
[13] = primary endpoint, adjusted, reduced dataset
[14] = primary endpoint, unadjusted, reduced dataset
[15] = first event, adjusted, full dataset
[16] = first event, adjusted, reduced dataset
[17] = first event, unadjusted, full dataset
[18] = first event, unadjusted, reduced dataset

CC/C=C\C/C=C\C/C=C\C/C=C\C/C=C\CCCC(=O)OCC [AMR101, eicosapentaenoic acid ethyl ester]
Total key secondary composite endpoint events, HR (95% CI) [1]: 0.71
Total primary composite endpoint events, HR (95% CI) [1]: 0.68
Total key secondary composite endpoint events, HR (95% CI) [2]: 0.72
Total primary composite endpoint events, HR (95% CI) [2]: 0.69
Total key secondary composite endpoint events, HR (95% CI) [3]: 0.71
Total primary composite endpoint events, HR (95% CI) [3]: 0.68
Total key secondary composite endpoint events, HR (95% CI) [4]: 0.72
Total primary composite endpoint events, HR (95% CI) [4]: 0.69
Total key secondary composite endpoint events, HR (95% CI) [5]: 0.71
Total primary composite endpoint events, HR (95% CI) [5]: 0.68
Total key secondary composite endpoint events, HR (95% CI) [6]: 0.72
Total primary composite endpoint events, HR (95% CI) [6]: 0.69
Total key secondary composite endpoint events, HR (95% CI) [7]: 0.71
Total primary composite endpoint events, HR (95% CI) [7]: 0.68
Total key secondary composite endpoint events, HR (95% CI) [8]: 0.72
Total primary composite endpoint events, HR (95% CI) [8]: 0.69
Total key secondary endpoints, number of events (Example 2, overall, 861 with placebo): 590
Total key secondary endpoint events, rate ratio (Example 3): 0.72
Total key secondary endpoint events, rate ratio [9]: 0.71
Total primary endpoint events, rate ratio [9]: 0.69
Key Secondary Endpoint Events: Others, % [10]: (52.9) %
Key Secondary Endpoint Events: ≥1 event, % [10]: (43.1) %
Key Secondary Endpoint Events: ≥2 events, % [10]: (37.9) %
Key Secondary Endpoint Events: ≥3 events, % [10]: (35.1) %
Key Secondary Endpoint Events: ≥4 events, % [10]: (42.9) %
Primary Endpoint Events: Others, % [10]: (35.0) %
Primary Endpoint Events: ≥1 event, % [10]: (43.9) %
Primary Endpoint Events: ≥2 events, % [10]: (39.2) %
Primary Endpoint Events: ≥3 events, % [10]: (35.3) %
Primary Endpoint Events: ≥4 events, % [10]: (27.9) %
Cardiovascular Death, HR (95% CI) [11]: 0.79
Non-fatal Cardiovascular Event, HR (95% CI) [11]: 0.68
Cardiovascular Death, HR (95% CI) [12]: 0.79
Non-fatal Cardiovascular Event, HR (95% CI) [12]: 0.68
Cardiovascular Death, HR (95% CI) [13]: 0.80
Non-fatal Cardiovascular Event, HR (95% CI) [13]: 0.67
Cardiovascular Death, HR (95% CI) [14]: 0.80
Non-fatal Cardiovascular Event, HR (95% CI) [14]: 0.66
Key secondary endpoint: fatal events, % (key secondary composite endpoint, after reduction, share of overall events in category): 45.0%
Key secondary endpoint: total events before reduction, % (key secondary composite endpoint, before reduction, share of overall events in category): 42.0%
Key secondary composite endpoint, HR (95% CI) [15]: 0.74
Primary composite endpoint, HR (95% CI) [15]: 0.75
Key secondary composite endpoint, HR (95% CI) [16]: 0.74
Primary composite endpoint, HR (95% CI) [16]: 0.75
Key secondary composite endpoint, HR (95% CI) [17]: 0.74
Primary composite endpoint, HR (95% CI) [17]: 0.76
Key secondary composite endpoint, HR (95% CI) [18]: 0.74
Primary composite endpoint, HR (95% CI) [18]: 0.76
Key secondary composite endpoint, HR (95% CI) (second event, adjusted, full dataset): 0.75
